Experimental data as given in the supplement of paper PMC11061612.

Tests used:
Assay in all cases: Bliss excess, mean over the matrix (fraction); higher = more synergy
[1] = test system: C-33-A (Cervical Carcinoma)
Procedure, shortened: (§1)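 After 24 hours at 37°C and 5% CO2 in 1536-well plates, cells in DMEM/F12 or RPMI plus 10% FBS received two-drug dose matrices for 72 hours. Viability came from CellTiter-Glo 2.0 luminescence and was scaled as inhibition, anchored at 0 by vehicle wells and at 1 by blank wells. Combination Emax is taken as the second-highest inhibition in the matrix, and Bliss excess as the observed combination effect less EA + EB − EA·EB, with EA and EB the single-agent effects.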

[2] = test system: COR-L88 (Small Cell Lung Carcinoma)
Procedure, shortened: as §1

ES6 (Ewing's Sarcoma) = test system: ES6 (Ewing's Sarcoma)
Procedure, shortened: as §1

GAK (Melanoma) = test system: GAK (Melanoma)
Procedure, shortened: as §1

[3] = test system: HT-1080 (Other Solid Carcinomas)
Procedure, shortened: as §1

KALS-1 (Glioblastoma) = test system: KALS-1 (Glioblastoma)
Procedure, shortened: as §1

[4] = test system: KP-4 (Pancreatic Carcinoma)
Procedure, shortened: as §1

[5] = test system: MOLP-8 (Plasma Cell Myeloma)
Procedure, shortened: as §1

[6] = test system: MS-1 (Small Cell Lung Carcinoma)
Procedure, shortened: as §1

[7] = test system: NAMALWA (Burkitt's Lymphoma)
Procedure, shortened: as §1

[8] = test system: P30-OHK (B-Lymphoblastic Leukemia)
Procedure, shortened: as §1

[9] = test system: RCC-JW (Kidney Carcinoma)
Procedure, shortened: as §1

[10] = test system: SKG-IIIa (Cervical Carcinoma)
Procedure, shortened: as §1

UACC-257 (Melanoma) = test system: UACC-257 (Melanoma)
Procedure, shortened: as §1

Structure (SMILES) | Bliss excess [1] | Bliss excess [2] | Bliss excess (ES6 (Ewing's Sarcoma)) | Bliss excess (GAK (Melanoma)) | Bliss excess [3] | Bliss excess (KALS-1 (Glioblastoma)) | Bliss excess [4] | Bliss excess [5] | Bliss excess [6] | Bliss excess [7] | Bliss excess [8] | Bliss excess [9] | Bliss excess [10] | Bliss excess (UACC-257 (Melanoma))
CN(CCO)CC[C@H](CSc1ccccc1)Nc1ccc(S(=O)(=O)NC(=O)c2ccc(N3CCC([C@@H](O)c4ccccc4-c4ccc(Cl)cc4)CC3)cc2)cc1S(=O)(=O)C(F)(F)F [AZD4320] + CN(C)CCCOc1ccc(-c2ccc3ncc4c(c3c2)n(C2CCOCC2)c(=O)n4C)cn1 [AZD0156] (first compound max 1 µM, 7x7, partner max 1 µM) | -0.0302 | -0.0161 | -0.0314 | -0.0381 | -0.0895 | -0.0076 | -0.0604 | 0.0233 | 0.0275 | 0.0125 | 0.0275 | -0.0301 | -0.0392 | -0.0323
CN(CCO)CC[C@H](CSc1ccccc1)Nc1ccc(S(=O)(=O)NC(=O)c2ccc(N3CCC([C@@H](O)c4ccccc4-c4ccc(Cl)cc4)CC3)cc2)cc1S(=O)(=O)C(F)(F)F [AZD4320] + C[C@@H]1COCCN1C2=NC(=NC(=C2)C3(CC3)[S@](=N)(=O)C)C4=C5C=CNC5=NC=C4 [AZD6738] (first compound max 1 µM, 7x7, partner max 10 µM) | -0.0158 | 0.0079 | 0.015 | 0.0029 | 0.0171 | -0.0784 | -0.0444 | 0.0086 | -0.0085 | 0.0006 | 0.0653 | -0.0862 | -0.0302 | -0.0663
CN(CCO)CC[C@H](CSc1ccccc1)Nc1ccc(S(=O)(=O)NC(=O)c2ccc(N3CCC([C@@H](O)c4ccccc4-c4ccc(Cl)cc4)CC3)cc2)cc1S(=O)(=O)C(F)(F)F [AZD4320] + C[C@@H](Nc1cc(F)cc(F)c1)c1cc(C(=O)N(C)C)cc2c(=O)cc(N3CCOCC3)oc12 [AZD8186] (first compound max 1 µM, 7x7, partner max 3 µM) | -0.0542 | 0.008 | 0.0029 | -0.0727 | -0.0232 | 0.0385 | 0.0087 | 0.0576 | 0.0115 | 0.0041 | 0.0647 | 0.0478 | -0.0066 | 0.0488
CN(CCO)CC[C@H](CSc1ccccc1)Nc1ccc(S(=O)(=O)NC(=O)c2ccc(N3CCC([C@@H](O)c4ccccc4-c4ccc(Cl)cc4)CC3)cc2)cc1S(=O)(=O)C(F)(F)F [AZD4320] + Cc1cc2ncnn2cc1Nc1ncc2c(n1)n(C1CCOCC1)c(=O)n2C [AZD7648] (first compound max 1 µM, 7x7, partner max 10 µM) | -0.0164 | 0.0052 | -0.0494 | 0.0066 | -0.0757 | -0.0096 | -0.0578 | -0.0125 | -0.0409 | 0.0013 | 0.0216 | -0.0476 | -0.0614 | -0.0351
CN(CCO)CC[C@H](CSc1ccccc1)Nc1ccc(S(=O)(=O)NC(=O)c2ccc(N3CCC([C@@H](O)c4ccccc4-c4ccc(Cl)cc4)CC3)cc2)cc1S(=O)(=O)C(F)(F)F [AZD4320] + Cn1cnc2c(F)c(Nc3ccc(Br)cc3Cl)c(C(=O)NOCCO)cc21 [Selumetinib] (first compound max 1 µM, 7x7, partner max 3 µM) | 0.0597 | 0.121 | -0.0326 | 0.0028 | -0.0965 | 0.0924 | -0.0025 | 0.0614 | 0.0229 | 0.0105 | 0.0291 | -0.0079 | 0.0044 | 0.0815
Cc1c2c(nn1C)CSCc1cc(n(C)n1)CSc1cc(c3ccccc3c1)OCCCc1c(C(=O)O)n(C)c3c-2c(Cl)ccc13 [AZD5991] + C1CN(CCC1(C(=O)N[C@@H](CCO)C2=CC=C(C=C2)Cl)N)C3=NC=NC4=C3C=CN4 [Capivasertib] (first compound max 1 µM, 7x7, partner max 3 µM) | 0.0063 | -0.0058 | -0.0055 | -0.029 | -0.0594 | 0.0491 | -0.005 | 0.0077 | 0.0265 | 0.0008 | 0.0273 | 0.0131 | -0.0231 | 0.0061
Cc1c2c(nn1C)CSCc1cc(n(C)n1)CSc1cc(c3ccccc3c1)OCCCc1c(C(=O)O)n(C)c3c-2c(Cl)ccc13 [AZD5991] + C=CCn1c(=O)c2cnc(Nc3ccc(N4CCN(C)CC4)cc3)nc2n1-c1cccc(C(C)(C)O)n1 [AZD1775] (first compound max 1 µM, partner max 1 µM) | -0.0556 | -0.0463 | 0.0814 | -0.0077 | 0.0345 | -0.0169 | -0.0245 | -0.0041 | -0.0462 | 0.0017 | 0.0077 | 0.0418 | 0.0071 | 0.0163
Cc1c2c(nn1C)CSCc1cc(n(C)n1)CSc1cc(c3ccccc3c1)OCCCc1c(C(=O)O)n(C)c3c-2c(Cl)ccc13 [AZD5991] + CC1(C)CCC(CN2CCN(c3ccc(C(=O)NS(=O)(=O)c4ccc(NCC5CCOCC5)c([N+](=O)[O-])c4)c(Oc4cnc5[nH]ccc5c4)c3)CC2)=C(c2ccc(Cl)cc2)C1 [Venetoclax] (first compound max 1 µM, 7x7, partner max 1 µM) | -0.006 | 0.136 | -0.0065 | 0.0208 | -0.0353 | -0.0206 | -0.0563 | 0.0174 | 0.0089 | -0.0172 | 0.285 | -0.0335 | -0.0115 | -0.0485
Cc1c2c(nn1C)CSCc1cc(n(C)n1)CSc1cc(c3ccccc3c1)OCCCc1c(C(=O)O)n(C)c3c-2c(Cl)ccc13 [AZD5991] + CN(C)CCCOc1ccc(-c2ccc3ncc4c(c3c2)n(C2CCOCC2)c(=O)n4C)cn1 [AZD0156] (first compound max 1 µM, 7x7, partner max 1 µM) | -0.0089 | -0.0129 | -0.0113 | 0.0152 | -0.0148 | 0.0151 | 0.0187 | 0.0086 | -0.0347 | -0.0079 | -0.0042 | -0.0001 | 0.0104 | -0.0064
Cc1c2c(nn1C)CSCc1cc(n(C)n1)CSc1cc(c3ccccc3c1)OCCCc1c(C(=O)O)n(C)c3c-2c(Cl)ccc13 [AZD5991] + C[C@@H]1COCCN1C2=NC(=NC(=C2)C3(CC3)[S@](=N)(=O)C)C4=C5C=CNC5=NC=C4 [AZD6738] (first compound max 1 µM, 7x7, partner max 10 µM) | -0.0501 | 0.0555 | 0.0289 | 0.0034 | 0.0041 | 0.0165 | 0.0389 | 0.0254 | -0.0205 | -0.0012 | 0.0592 | 0.0192 | 0.0106 | 0.0278
Cc1c2c(nn1C)CSCc1cc(n(C)n1)CSc1cc(c3ccccc3c1)OCCCc1c(C(=O)O)n(C)c3c-2c(Cl)ccc13 [AZD5991] + C[C@@H](Nc1cc(F)cc(F)c1)c1cc(C(=O)N(C)C)cc2c(=O)cc(N3CCOCC3)oc12 [AZD8186] (first compound max 1 µM, 7x7, partner max 3 µM) | -0.0463 | -0.0524 | 0.0045 | 0.0257 | -0.0338 | 0.012 | -0.0235 | 0.0039 | -0.0481 | 0.0021 | 0.0058 | 0.0126 | -0.0411 | -0.0234
Cc1c2c(nn1C)CSCc1cc(n(C)n1)CSc1cc(c3ccccc3c1)OCCCc1c(C(=O)O)n(C)c3c-2c(Cl)ccc13 [AZD5991] + Cc1cc2ncnn2cc1Nc1ncc2c(n1)n(C1CCOCC1)c(=O)n2C [AZD7648] (first compound max 1 µM, 7x7, partner max 10 µM) | -0.0586 | -0.0006 | -0.0745 | -0.021 | -0.0256 | -0.008 | -0.0261 | 0.0192 | -0.0158 | -0.0286 | -0.0222 | -0.0349 | -0.0261 | -0.0242
Cc1c2c(nn1C)CSCc1cc(n(C)n1)CSc1cc(c3ccccc3c1)OCCCc1c(C(=O)O)n(C)c3c-2c(Cl)ccc13 [AZD5991] + Cn1cnc2c(F)c(Nc3ccc(Br)cc3Cl)c(C(=O)NOCCO)cc21 [Selumetinib] (first compound max 1 µM, 7x7, partner max 3 µM) | 0.0077 | -0.0114 | -0.039 | -0.0093 | 0.0108 | -0.0897 | -0.0165 | 0.0291 | -0.0362 | -0.0172 | 0.0011 | -0.0319 | -0.0076 | 0.0215
C[C@@H]1COCCN1c1cc(C2([S@](C)(=N)=O)CC2)nc(-c2ccnc3[nH]ccc23)n1 [AZD6738] + O=C(c1cc(Cc2n[nH]c(=O)c3ccccc23)ccc1F)N1CCN(C(=O)C2CC2)CC1 [Olaparib] (first compound max 10 µM, 7x7, partner max 10 µM) | -0.0049 | -0.12 | 0.0128 | 0.0019 | 0.0128 | 0.0028 | 0.113 | 0.003 | 0.0056 | -0.0187 | 0.0469 | 0.0465 | 0.0236 | -0.0009
Cc1cc2ncnn2cc1Nc1ncc2c(n1)n(C1CCOCC1)c(=O)n2C [AZD7648] + C=CCn1c(=O)c2cnc(Nc3ccc(N4CCN(C)CC4)cc3)nc2n1-c1cccc(C(C)(C)O)n1 [AZD1775] (first compound max 10 µM, partner max 1 µM) | 0.0409 | -0.0543 | -0.0031 | -0.0275 | 0.0591 | -0.0051 | 0.0217 | 0.0123 | -0.0401 | -0.0101 | 0.0014 | -0.0102 | 0.0237 | 0.0334
Cc1cc2ncnn2cc1Nc1ncc2c(n1)n(C1CCOCC1)c(=O)n2C [AZD7648] + CCN(CCO)CCCOc1ccc2c(Nc3cc(CC(=O)Nc4cccc(F)c4)[nH]n3)ncnc2c1 [AZD2811] (first compound max 10 µM, 7x7, partner max 1 µM) | 0.045 | 0.0077 | -0.0042 | -0.035 | 0.0364 | 0.0068 | -0.0425 | 0.0616 | 0.0104 | 0.114 | -0.0267 | -0.011 | -0.0161 | 0.0315
Cc1cc2ncnn2cc1Nc1ncc2c(n1)n(C1CCOCC1)c(=O)n2C [AZD7648] + CN(C)CCCOc1ccc(-c2ccc3ncc4c(c3c2)n(C2CCOCC2)c(=O)n4C)cn1 [AZD0156] (first compound max 10 µM, 7x7, partner max 1 µM) | 0.033 | -0.0326 | -0.0234 | 0.0232 | -0.0246 | 0.015 | 0.0228 | 0.0712 | 0.0245 | -0.0224 | 0.0194 | -0.0158 | -0.0195 | -0.02
